Source: PMC9963438, “Emerging Effects of Resveratrol Derivatives in Cells Involved in Oral Wound Healing: A Preliminary Study” (International Journal of Molecular Sciences, 2023)

Tests used:
HUVECs [1] = test: LDH release assay on HUVECs; assay type: cell-based, human; settings: 24 h
Procedure: (§1) Lactate Dehydrogenase (LDH) activity in HUVECs, HGFs, and HOBs was measured with a cytotoxicity detection kit LDH (Roche, Basilea, Swiss). Firstly, 5000 cells/well (HUVECs, HGFs and HOBs) were seeded in 96-well plates and treated with 1d and 1h (5, 10, 20 µM). After 24 h, the assay was performed according to manufacturer instructions. LDH release was calculated as a percentage with respect to the control (CTRL).

HGFs [2] = test: LDH release assay on HGFs; assay type: cell-based, human; settings: 24 h
Procedure: as §1

HUVECs [3] = test: MTT viability/proliferation on HUVECs; assay type: cell-based, human
Procedure: (§2) To measure HUVECs, HGFs, and HOBs metabolic activity as an indicator of cell viability and proliferation, an MTT assay (Sigma Aldrich, Milan, Italy) was performed. In brief, 8000 cells/well (HUVECs, HGFs and HOBs) were seeded in 96-well plates and after 24 h cells were treated with increasing concentrations of 1d and 1h for 48 h and 72 h. Then, the medium was replaced by a fresh one supplemented with […] MTT and probed for 4 h at 37 °C. The medium containing MTT was discarded and replaced by an equal volume of DMSO to dissolve formazan crystals. The absorbance of the solution was read at a 540 nm wavelength by a microplate reader (Multiskan GO, Thermo Scientific, MA, USA). Values obtained without cells were considered as background. Viability and proliferation were normalized to control cells treated with DMSO 0.1%.

HOBs [4] = test: MTT viability/proliferation on HOBs; assay type: cell-based, human; settings: vs CTRL and RSV 10 µM
Procedure: as §2

HGFs [5] = test: Toluidine blue staining, morphology and confluence of HGFs; assay type: cell-based, human; settings: for HGFs confluence: compared to controls
Procedure: The influence of 1d and 1h was evaluated on cells density and morphology by toluidine-blue staining. A total of 2 × 10^4 cells/well were cultured in 24-well plates and were incubated at 37 °C and 5% CO2 with tested compounds at 5 µM. After 48 and 72 h, adherent cells were fixed with 70% cold ethanol and stained with 1% toluidine blue and 1% borax (Sigma Aldrich, St. Louis, MO, USA). Cells were then observed by an inverted microscope connected with a camera at 40×, 100×, and 200× magnifications (Leica, Wild Heer-brugg, Wetzlar, Germany).

[6] = system: Alkaline phosphatase (ALP) activity in HOBs; test: ALP activity assay in HOBs; assay type: cell-based, human; settings: 5 µM, 7 days, compared to CTRL and RSV; not statistically significant
Procedure: Alkaline phosphatase (ALP) activity was evaluated by ALP assay kit colorimetric AB83369 (Abcam Inc., Cambridge, UK). HOBs were seeded at a density of 5 × 10^4 cells/well and treated with 1d and 1h. After 7 days of culture, cell lysate was obtained, and ALP levels were measured according to the manufacturer instructions. The absorbance was measured at 450 nm by a microplate reader (Synergy H1 Hybrid BioTek Instruments, Winooski, VT, USA).

HOBs [7] = test: Alizarin red staining and calcium deposition (CPC) in HOBs; assay type: cell-based, human; settings: 5 µM, 14 days
Procedure: To evaluate mineralization qualitatively, Alizarin red staining was performed. 5 × 10^4/well HOBs were seeded and treated with 1d and 1h. After 14 days of culture, HOBs were rinsed three times with PBS and fixed with a glutaraldehyde solution (2.5%) for 2 h. An Alizarin staining solution (Sigma-Aldrich) was then added for 1h at room temperature and the excess dye was removed using deionized water. The presence of calcium deposition was qualitatively evaluated by observing the intensity of the red color. Images were taken by a stereomicroscope connected with a camera at a magnification of 12× (Leica, Wetzlar, Germany). Furthermore, to quantify calcium deposition, Cetylpyridinium Chloride (CPC) was used. Upon a washing with deionized water, cells were treated with 1 mL of 10% CPC solution (Sigma-Aldrich) for 1 h to chelate calcium ions. After incubation, the absorbance was read at 540 nm by a microplate reader (Synergy H1 Hybrid BioTek Instruments) and normalized with the cell number.

eNOS mRNA in HUVECs = test: RT-qPCR of eNOS in HUVECs; assay type: cell-based, human
Procedure: (§3) Total RNA was isolated using Trifast reagent (EuroClone) according to the manufacturer instructions from 3 × 10^5 cells/well treated with increasing concentrations of 1d and 1h for 48 h and 72 h. Complementary DNA (cDNA) was obtained using GoTaq® 2 Step RT-qPCR Kit (Promega, Madison, WI, USA) in accordance with the manufacturer’s instructions. RT-qPCR was carried out using SYBR Green (Promega) on the Quant Studio 7 Pro Real-Time PCR System (ThermoFisher, Waltham, MA, USA). The results were normalized to glyceraldehyde 3-phoshate dehydrogenase (GAPDH) for HUVECs and HGFs and to β-actin (βACT) for HOBs using the 2^−ΔΔCt method.

COL1 mRNA in HGFs = test: RT-qPCR of COL1 in HGFs; assay type: cell-based, human
Procedure: as §3

FN1 mRNA in HGFs = test: RT-qPCR of FN1 in HGFs; assay type: cell-based, human; settings: 5, 10, 20 µM, 48 and 72 h, compared to RSV-treated cells and CTRL
Procedure: as §3

[8] = LogP determination (n-octanol/phosphate buffer pH 7.4); assay type: physicochemical; settings: n-octanol/aqueous phosphate buffer, pH 7.4, n-octanol / phosphate buffer pH 7.4; mean of three experiments (SD)
Procedure: Both n-octanol and aqueous phosphate buffer (pH 7.4) solutions were saturated of each other by shaking. A total of 1 mL of n-octanol was added to an equal volume of an aqueous phosphate buffer (pH 7.4). A total of 5 mg of each compound was added and mixed by repeated inversion up to 200 times for 5 min and then allowed to stand for 30 min for the full separation of the two phases. Next, the respective phases were filtered and analyzed by HPLC [50] and the logarithm of the ratio of the concentrations of the unionized solute in the solvents (LogP) were determined.

[9] = 10 and 20 µM, differences not significant
[10] = 5 µM, 72 h, vs CTRL and RSV 10 µM
[11] = 10 µM, 48 h, vs CTRL and RSV 10 µM
[12] = 10 µM, 72 h, vs CTRL and RSV 10 µM
[13] = 20 µM, 72 h, vs CTRL and RSV 10 µM
[14] = 72 h, 1d and 1h 5 µM, RSV 10 µM
[15] = all concentrations (5, 10, 20 µM), 48 and 72 h

Row | LDH release (HUVECs [1]; 5 µM) | LDH release (HUVECs [1]; [9]) | LDH release (HGFs [2]; 5 µM) | LDH release (HGFs [2]; [9]) | SMILES | HUVECs viability (MTT) (HUVECs [3]; [10]) | HUVECs viability (MTT) (HUVECs [3]; [11]) | HUVECs viability (MTT) (HUVECs [3]; [12]) | HUVECs viability (MTT) (HUVECs [3]; [13]) | HOBs metabolic activity / proliferation (MTT) (HOBs [4]; 5 µM, 48 h) | HOBs metabolic activity / proliferation (MTT) (HOBs [4]; 5 µM, 72 h) | HOBs metabolic activity / proliferation (MTT) (HOBs [4]; 10 µM, 48 h) | HGFs morphology (HGFs [5]; 5 µM, 48 h) | HGFs confluence (HGFs [5]; 5 µM, 72 h) | HGFs morphology (HGFs [5]; [14]) | ALP activity in HOBs [6] | matrix mineralization by ARS (qualitative) (HOBs [7]) | eNOS mRNA expression (eNOS mRNA in HUVECs; 5 µM, 48 h, vs CTRL and RSV) | eNOS mRNA expression (eNOS mRNA in HUVECs; 5, 10, 20 µM, 72 h) | COL1 mRNA level (COL1 mRNA in HGFs; [15]) | FN1 mRNA level (FN1 mRNA in HGFs) | further results
1 | lowest LDH values | slightly increased the LDH | lowest LDH values | slightly increased the LDH | CCS(=O)(=O)Nc1ccc(/C=C/c2ccccc2)cc1 [1h, N-{4-[(E)-2-Phenylvinyl]phenyl}ethanesulfonamide] | slightly favored cell growth with respect to RSV | viability was not induced | viability significantly decreased | viability significantly decreased | enhanced the metabolic activity of osteoblasts | significantly enhanced cell proliferation with respect to the CTRL | slightly promoted cell growth | short and broad and assumed a cuboid to polygonal aspect | nearly confluent | mainly appeared as long spindles | same ALP levels observed in the control cells and osteoblasts treated with RSV | stimulated the formation of mineralized nodules | increased eNOS expression at 5 µM | slightly promoted | increase in COL1 mRNA level | no significant modifications | HUVECs viability (MTT) (HUVECs [3]; 20 µM, 48 h, vs CTRL and RSV 10 µM): viability was not induced; HOBs metabolic activity / proliferation (MTT) (HOBs [4]; 20 µM, 48 h): decreased in respect to the CTRL and RSV; logP [8]: < 3; melting point: 230 to 231 °C
2 | lowest LDH values | slightly increased the LDH | lowest LDH values | slightly increased the LDH | Cc1ccc(S(=O)(=O)Nc2ccc(/C=C/c3ccccc3)cc2)cc1 [1d, 4-Methyl-N-{4-[(E)-2-phenylvinyl]phenyl}benzenesulfonamide] | significantly promoted cell viability with respect to RSV | slightly increased for 10 µM only with respect to RSV | viability was not enhanced | viability was not enhanced | enhanced the metabolic activity of osteoblasts | significantly promoted the proliferation of cells | slightly promoted cell growth | short and broad and assumed a cuboid to polygonal aspect | nearly confluent | mainly appeared as long spindles | enhanced | higher mineralization potential | increased after 48 h exposure to all 1d concentrations with statistical significance just for 5 µM | slightly promoted the enhancement of eNOS expression | increase in COL1 mRNA level | no significant modifications | HUVECs viability (MTT) (HUVECs [3]; 5 µM, 48 h, vs CTRL (0.1% DMSO) and RSV 10 µM): slight increase in metabolic activity at 5 µM compared to the CTRL and a significant increase compared to RSV; calcium deposition (quantitative measurement with CPC) (HOBs [7]; vs control, RSV and 1h): significantly stimulated the calcium deposition; eNOS mRNA expression (eNOS mRNA in HUVECs; 10 and 20 µM, 48 h, not statistically significant): increased; COL1 mRNA level (COL1 mRNA in HGFs; 5 µM, 48 h, compared to CTRL and RSV): significantly highest result; logP [8]: < 3; melting point: 182 to 183 °C
